Entries after “also recorded” stand apart in the source; their conditions may differ. Non-standard residues stand in square brackets, D forms with d. Residues, ends and D or L forms follow the SMILES beside them. No end group written: not given here. pGlu = O=C1CC[C@@H](C(=O)O)N1
How the values were obtained:
[1] = tested on: MDA-MB-435S.luc breast cancer cells; test: Effect of spacer molecule on cellular iron uptake (Example 27); assay type: cell-based, human; settings: iron incubation 1 mg/ml, 3 hours; for iron accumulation in the breast cancer cells in the presence of LHRH: free LHRH present
Protocol: The effect of a spacer molecule on cellular uptake was tested in vitro on MDA-MB-435S.luc breast cancer cells, which express LHRH receptors. Iron incubation was conducted at 1 mg/ml for different conditions for 3 hours. Accumulation in the breast cancer cells was 82.3±25 pg/cell for SPIONs, 165±16 pg/cell for LHRH−SPIONs, and 223±16 pg/cell with LHRH-Glu-SPION. […] These observations support our hypothesis that iron uptake was driven by receptor-mediated endocytosis.

[2] = tested on: MDA-MB-435S.luc tumor bearing mice; test: Treatment of tumor-xenografted mice (Example 29); assay type: in vivo, mouse; settings: for tumor weights at necropsy: tail vein injections at 3, 4 and 5 weeks post-xenograft, 28 days after the start of treatment
From the text: Mice were sacrificed and necropsied 6 weeks post-xenografts. […] Bodyweights, liver weights, and gonadal weights remained stable during all treatments. The breast cancer tumors and metastases were specifically targeted and destroyed by LHRH-conjugated SPIONs carrying a toxin (hecate). The same particles may be used for simultaneous treatment and imaging, e.g., for directly monitoring treatment response in cancer patients.

[3] = tested on: MCF-7, MDA-MB-435S.luc and TM4 cell lines; test: In vitro toxicity of constructs on three cell lines, cell line not given; assay type: cell-based; settings: FIG. 4
From the text: FIG. 4 depicts toxicity measurements of different constructs on three cell lines.
Pancreatic, prostate, breast, and lung cancers may be targeted by LHRH, linked to a toxin or drug such as a lytic peptide and to a SPION. In one study we tested the use of LHRH−SPIONs conjugated to a toxin or drug for both treatment and imaging of tumors and metastases. A particle with a ligand and a toxin (drug) may be made in at least three different configurations: ligand-toxin(drug)-SPION, ligand-SPION-toxin(drug), or toxin(drug)-ligand-SPION. […] (The potential construct SPION-LHRH-Hecate was not tested in these experiments.) See FIG. 4. […] Based on the results reported above, the introduction of a spacer is expected to improve ligand-receptor interaction; and, in the case of a lytic peptide, to improve the peptide-membrane interaction. The spacer may also improve plasma stability of the particles.

tumor-free mice = settings: mouse, in vivo, iv
Protocol: (§1) Targeting Human Breast Cancer Xenograft and their Metastases with LHRH−SPIONs in vivo. To evaluate the distribution of LHRH−SPIONs and unconjugated SPIONs in vivo, female nude mice with human breast MDA-MB-435S.luc xenograft as described above were injected intravenously with 250 mg/kg LHRH-SPIONs or with unconjugated SPIONs, 35 days after tumor inoculation. The mice were sacrificed 20 h after injection, and the organs and tumors were collected, weighed and analyzed for iron and luciferase. Portions of the organs and tumors were homogenized and their iron content determined spectrophotometrically after reaction with Prussian blue, while other portions were analyzed after fixation by transmission electron microscopy.
(§2) Statistical analyses were conducted on raw data by ANOVA. We obtained the ranks of the data, and then conducted a Kruskal-Wallis test. Differences were considered significant at the P<0.05 level. Rank data and variance stabilizing transformations were included.

[4] = Surface charge of nanoparticles; assay type: physicochemical
From the text: The magnetic nanoparticle preferably comprises primarily Fe3O4, rather than the Fe2O3 that has been used for most prior magnetic nanoparticles. The Fe3O4 particle surface contains amine groups that initially prevent agglomeration, eliminating the need for a coating such as a dextran or other intermediate coatings such as have been used in most prior magnetic nanoparticles. […] The only “coating” that need be used is the targeting agent itself, one with specificity for the target cells (or a combination of targeting agent and toxin or drug). The targeting agent, and the optional toxin or drug are covalently linked to the nanoparticle via amide linkages formed by reaction with the amine groups on the particles. The targeting agent may, for example, be a hormone, ligand, or antibody, or a fragment thereof to assist in selectively directing the particles to the cells of interest and facilitating their intracellular up-take and accumulation. The optional toxin or drug may, for example, be a lytic peptide, other peptide toxin, or other toxin or drug. Our studies have shown that reducing the amount of ligand/coating on the nanoparticles increases macrophage recognition and incorporation. By optionally distancing the ligand from the nanoparticle surface through a spacer molecule, ligand specificity may be retained while increasing cellular uptake. […]

[5] = tested on: female nude mice with human breast MDA-MB-435S.luc xenograft; settings: mouse, in vivo
Protocol: as §1
The design of this cancer model was such that all tumor cells expressed luciferase, meaning that the presence of luciferase was inherently synonymous with the presence of cancer cells. By contrast, the presence of iron was not inherently synonymous with the presence of cancer cells. The goal of this experiment was to test the efficacy of the novel system at specifically delivering iron to cancer cells.
as §2

[6] = tested on: MDA-MB-435S.luc xenograft-bearing mouse; test: Iron content of tissue homogenates, tumor and kidney (Example 9); assay type: in vivo; settings: 250 mg/kg tail vein, 20 hours
Protocol: Portions of the tissue samples from Example 8 were homogenized, and iron content was determined in calorimetric assays. The amounts of accumulated iron per gram total organ mass could thus be determined. […] When nanoparticles alone were injected, the iron content in tumors was only about 4%.

[7] = tested on: breast cancer cells MDA-MB-435S; test: In vitro uptake of ligand-conjugated SPIONs (Example 10); assay type: cell-based, human; settings: MDA-MB-435S cells, no free ligand
Protocol: (§3) LHRH−SPIONs and βCG/LH-SPIONs were tested on breast cancer cells MDA-MB-435S, on Chinese Hamster Ovary cells, on rat LH-receptor-transfected Chinese Hamster Ovary cells, and on mouse Sertoli cells. Experiments were conducted in the presence of LHRH, βCG, or neither. […] In addition, we observed that co-incubation with the free peptide ligands blocked the receptors that otherwise enabled the ligand-conjugated SPIONs to enter cells through receptor-mediated endocytosis. The uptake was then primarily via phagocytosis or pinocytosis at a low rate, similar to that for unconjugated SPIONs. The observed uptake was specific; the quantity of iron nanoparticles within the cells was substantially higher for receptor-mediated uptake.

[8] = tested on: MDA-MB-435S.luc xenograft-bearing mouse; settings: 250 mg/kg tail vein, 20 hours, 6 mice per group
Protocol: The mice were euthanized 20 hours after the injections; and their tumors, lungs, liver, heart, kidney, pancreas, spleen, and gonads were collected. Portions of the organs and tumors were embedded in paraffin and tested for iron using Prussian blue staining.

[9] = tested on: mice bearing the MDA-MB-435S.luc tumors; settings: after sequential injections
From the text: See FIGS. 3(a) through (d), showing photographs of Prussian Blue-stained sections from lungs of mice bearing the MDA-MB-435S.luc tumors. FIG. 3(a) depicts a saline-injected control. FIG. 3(b) depicts injection with unconjugated SPIONs. FIGS. 3 (c) and (d) depict injection with conjugated LHRH−SPIONs.

human macrophages = test: In vitro macrophage uptake of nanoparticles (Example 26); assay type: cell-based; settings: iron concentration of 20 μg/mL
[10] = tested on: male nude mice bearing tumors from human prostate cancer line PC-3.luc; settings: mouse, in vivo
From the text: This experiment employed male nude mice bearing tumors from human prostate cancer line PC-3.luc (with luciferase reporter).

[11] = tested on: Chinese Hamster Ovary cells; mouse Sertoli cells; test: In vitro uptake in cell lines that do not express the appropriate receptors; assay type: cell-based; settings: listed as LHRH−SPIONs
Protocol: as §3

[12] = tested on: tumor-xenograft-bearing mice; settings: 2, 10, 30 and 60 days after injection
Protocol: Pharmacokinetics of iron nanoparticles. To determine the pharmacokinetic profile of SPIONs and their conjugates, 4 groups of tumor-xenograft-bearing mice (n=10) are injected with the various concentrations of conjugated SPIONs as determined above. A fifth group serves as saline control. The mice are housed for 2, 10, 30, and 60 days after injection, and are then sacrificed to determine iron content in peripheral tissues. This experiment uses 50 female nude mice, and will establish the excretion profile of LHRH−SPIONs over a period of 60 days.

rats = settings: rat, in vivo, iv, 250 mg/kg; cited from earlier work

## LHRH-Glu-SPION: LHRH bound to SPION through a glutaric acid spacer (Examples 5 and 7) (QHWSYGLRPG; ends and bridges not checked; also: bound to SPION through a glutaric acid spacer, site not given here; UniProt P01148 24-33, looked up)
[1]
  iron accumulation in the breast cancer cells: 223±16 pg/cell
  iron accumulation in the breast cancer cells in the presence of LHRH: 123±25 pg/cell

## CC(C)C[C@H](NC(=O)[C@H](C)NC(=O)[C@H](CCCCN)NC(=O)[C@H](CCCCN)NC(=O)[C@H](CC(C)C)NC(=O)[C@H](C)NC(=O)[C@H](CCCCN)NC(=O)[C@H](CCCCN)NC(=O)[C@H](CC(C)C)NC(=O)[C@H](CCCCN)NC(=O)[C@H](CCCCN)NC(=O)[C@H](CC(C)C)NC(=O)[C@H](C)NC(=O)[C@H](CCCCN)NC(=O)[C@H](CCCCN)NC(=O)[C@H](CC(C)C)NC(=O)[C@H](C)NC(=O)[C@H](CCCCN)NC(=O)[C@H](CC(C)C)NC(=O)[C@H](C)NC(=O)[C@H](CC(C)C)NC(=O)[C@H](C)NC(=O)[C@H](Cc1ccccc1)NC(=O)CNC(=O)[C@@H]1CCCN1C(=O)[C@H](CCCNC(=N)N)NC(=O)[C@H](CC(C)C)NC(=O)CNC(=O)[C@H](Cc1ccc(O)cc1)NC(=O)[C@H](CO)NC(=O)[C@H](Cc1c[nH]c2ccccc12)NC(=O)[C@H](Cc1c[nH]cn1)NC(=O)[C@@H]1CCC(=O)N1)C(=O)O [LHRH-Hecate] ([pGlu]HWSYGLRPGFALALKALKKALKKLKKALKKAL-OH; C-terminus assumed)
[2]; during and after treatment
  change of tumor volumes (and tumor weights): arrested at the start of treatment and then diminished significantly; also recorded: decreased
[2]; mouse, in vivo
  lymph node metastases, assayed by luciferase activity at necropsy: destroyed
[2]
  tumor weights at necropsy: 0.07 ± 0.04 g

## LHRH−SPION: Fe3O4 magnetite nanoparticles covalently bound to LHRH by carbodiimide reaction (Example 3)
[3]
  toxicity: not toxic
tumor-free mice
  percentage of iron accumulating in lung: 0.9%
[4]
  charge of nanoparticles (in words): almost neutral
[5]
  fraction of injected particles accumulated in primary tumors and metastases: up to 60%
  relation of level accumulated in the lungs to metastatic load (luciferase activity): linear function of the metastatic load
[5]; iv, 250 mg/kg
  percentage of iron accumulating in kidney: 3.3%
  percentage of iron accumulating in lung: 22.2%
[6]
  iron located in the tumor (estimate of iron content in tumor and kidney): up to 70%
[1]
  iron accumulation in the breast cancer cells: 165±16 pg/cell
  iron accumulation in the breast cancer cells in the presence of LHRH: 106±26 pg/cell
[7]
  observed uptake: 452 pg Fe/cell
[8]
  tumors testing positive for iron (Prussian blue staining): Four of six
[9]
  retention of nanoparticles inside the target cells: at least four weeks
Human macrophages
  difference in macrophage uptake, SPIONs versus LHRH-SPIONs: thirteen-fold
  fraction taken up by macrophages: about 5%
[10]
  accumulation in tumor tissue compared to normal (kidney) tissue: preferentially accumulate in tumor tissue
[2]
  tumor weights at necropsy: 0.24 ± 0.09 g
[11]
  ligand-mediated uptake in cell lines that did not express the appropriate receptors: did not bind and accumulate; also recorded: substantially lower
[12]
  predicted depletion of iron from tumor and metastatic tissues: slower depletion
  predicted iron content in kidney, liver and spleen over time: decrease rather rapidly with time

## iron oxide nanoparticles
rats
  adverse effects: no adverse effects
